Patent US10098949B2, “Adsorption of immunopotentiators to insoluble metal salts” (GlaxoSmithKline Biologicals SA, priority 2010, dated 2018)
Where two headings read alike, the source gives them in different places.

Experiments:
[1] = Model of in vivo desorption from Al—H; type: in vitro ADME; conditions: 37° C., after 5 hours
[2] = Adsorption to aluminium hydroxide (Al—H) adjuvant, supernatant by HPLC; type: physicochemical; conditions: for % adsorption to Al—H: 10 mM histidine buffer, pH 6.5; for Adsorption Efficiency to aluminum hydroxide: 3 mg/mL aluminum hydroxide, 0.5 mg/mL compound, no buffer, room temperature overnight, RP-HPLC
human PBMCs = assay: Activity in human PBMCs; type: cell-based
[3] = Muscle levels 24 hours after intramuscular injection; type: in vivo, Balb/C mice; conditions: for level of compound in muscle: 24 hours after i.m. injection
[4] = tested on: serogroup B meningococcus; type: in vivo
splenocytes = assay: Activity in splenocytes; type: cell-based
[5] = Solubility in water and in histidine buffer; type: physicochemical; conditions: pH 6.8
human TLR7 = target: T1, human TLR7 (Homo sapiens, UniProt Q9NYK1); assay: HEK293 human TLR7 NF-κB luciferase reporter assay; type: cell-based; conditions: HEK293 cells
T1 construct: expressed in transfected cells; host or cells: HEK293
T1 sequence (Q9NYK1 27-1049): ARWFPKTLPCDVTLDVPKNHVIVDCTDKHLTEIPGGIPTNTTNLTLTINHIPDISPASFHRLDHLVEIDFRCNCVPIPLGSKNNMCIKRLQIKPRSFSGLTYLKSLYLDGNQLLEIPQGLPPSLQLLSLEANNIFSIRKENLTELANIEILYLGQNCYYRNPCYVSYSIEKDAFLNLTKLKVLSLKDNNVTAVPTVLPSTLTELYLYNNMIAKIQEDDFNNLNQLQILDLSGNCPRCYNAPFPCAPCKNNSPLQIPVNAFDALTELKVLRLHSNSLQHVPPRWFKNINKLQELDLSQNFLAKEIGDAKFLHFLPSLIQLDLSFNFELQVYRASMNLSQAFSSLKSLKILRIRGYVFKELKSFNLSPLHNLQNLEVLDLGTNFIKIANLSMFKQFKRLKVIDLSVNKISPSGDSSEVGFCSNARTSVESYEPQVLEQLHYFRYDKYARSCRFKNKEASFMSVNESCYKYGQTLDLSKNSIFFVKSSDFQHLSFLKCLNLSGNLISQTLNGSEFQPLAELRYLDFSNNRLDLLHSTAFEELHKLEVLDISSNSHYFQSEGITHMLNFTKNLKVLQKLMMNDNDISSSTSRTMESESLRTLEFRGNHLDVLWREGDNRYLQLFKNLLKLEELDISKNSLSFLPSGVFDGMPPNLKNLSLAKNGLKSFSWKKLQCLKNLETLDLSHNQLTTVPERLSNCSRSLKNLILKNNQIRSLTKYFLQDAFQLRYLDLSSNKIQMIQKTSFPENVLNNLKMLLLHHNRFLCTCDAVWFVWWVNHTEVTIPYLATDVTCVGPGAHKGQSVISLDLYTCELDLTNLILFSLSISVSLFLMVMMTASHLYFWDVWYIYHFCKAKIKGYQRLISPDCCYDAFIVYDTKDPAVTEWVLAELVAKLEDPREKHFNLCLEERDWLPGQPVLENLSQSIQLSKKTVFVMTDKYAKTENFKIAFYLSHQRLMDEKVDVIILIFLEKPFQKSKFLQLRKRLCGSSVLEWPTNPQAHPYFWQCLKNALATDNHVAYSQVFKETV
Protocol: The activity of this compound is assessed in an assay using HEK293 cells which are stably transfected with human TLR7 and an NF-κB-driven luciferase reporter vector (pNifty-Luciferase). As a control assay, normal HEK293 transfected with pNifty-Luc are used. Cells are cultured in DMEM supplemented with 2 mM L-glutamine, 10% heart inactivated FBS, 1% penicillin and streptomycin, 2 μg/ml puromycin and 5 μg/ml of blasticidin. Bright-Glo™ Luciferase assay buffer and substrate are supplied by Promega. Cells are plated at 25,000 cells/well in 384-well plates in a final volume of 50 μl of media. Cells are allowed to adhere to the plates after overnight (18 hours) culture at 37° C. and 5% CO2. Serially-diluted experimental and positive control compounds are then dispensed to each well and incubated for 7 hours at 37° C. and 5% CO2. Cells stimulated with DMSO alone serve as negative controls. After the incubation, 30 μl of the pre-mix assay buffer and substrate buffer are added to each well according to manufacturer's instructions. The luminescence signal is read on a CLIPR machine with an integration time of 20 seconds per plate.

serum cytokines = conditions: in vivo
[6] = Association with Al—H particles by confocal microscopy and flow cytometry; type: physicochemical; conditions: confocal microscopy (compound 1) or flow cytometry (compounds 2, O)
[7] = SIF (simulated interstitial fluid)
[8] = 5CVMB, CD-1 mice, days 0 & 14, (b) the agonist compound

Q: Which “proportion desorbed from Al—H” value ([1]; His buff) does the source give for `Cc1cc(OCCCC(F)(F)P(=O)(O)O)ccc1CCc1cnc2c(N)nc3cc(CCC(=O)O)ccc3c2c1` [Compound 3] here?
A: The value was 5%.

Q: And the “proportion desorbed from Al—H” value ([1]; Plasma/His buff)?
A: Its value is 49%.

Q: What about the “proportion desorbed from Al—H” value [1, 7] of the same molecule?
A: The value was 100%.

Q: And the “compound in supernatant after mixing with aluminium hydroxide (HPLC)” value [2]?
A: Its value is “neither compound is observed in the supernatant”.

Q: What about the “% adsorption to Al—H” value [2] of the same molecule?
A: The value was 96.2%.

Q: What does the source list for `Cc1cc(OCCOCCOCCC(F)(F)P(=O)(O)O)ccc1CCc1cnc2c(N)nc3cc(CCC(=O)O)ccc3c2c1` [Compound 4]?
A: proportion desorbed from Al—H ([1]; His buff): 4%; proportion desorbed from Al—H ([1]; Plasma/His buff): 81%; proportion desorbed from Al—H [1, 7]: 100%; compound in supernatant after mixing with aluminium hydroxide (HPLC) [2]: neither compound is observed in the supernatant; % adsorption to Al—H [2]: 96.0%

Q: For `COCCOc1nc(N)c2nc(O)n(Cc3ccc(CP(=O)(O)O)cc3)c2n1` [Compound 6, (4-((6-amino-2-(2-methoxyethoxy)-8-oxo-7H-purin-9(8H)-yl)methyl)benzyl)phosphonic Acid], which “activity compared to resiquimod (set to 100%)” value (“activity … (set to 100%)” below) (human PBMCs) is on record?
A: The value was 35%.

Q: What about the EC50 (human PBMCs; PBMC, read-out: EC50) of the same molecule?
A: Its EC50 is 1 µM.

Q: What about the “level of compound in muscle” value ([3]; without Al—H (free form)) of the same molecule?
A: Its value is “undetectable”.

Q: And the “compound in inguinal lymph nodes or liver” value ([3]; after 24 hours)?
A: Its value is “could not be detected”.

Q: What about the “SBA titer at day 28” value [4, 8] of the same molecule?
A: The value was 282.

Q: What about the “SBA titer at day 28” value ([4]; in vivo) of the same molecule?
A: Its value is 4016.

Q: And the “activity … (set to 100%)” value (splenocytes)?
A: Its value is 210%.

Q: And the EC50 (splenocytes; Splenocyte, read-out: EC50)?
A: Its EC50 is 0.98 µM.

Q: What about the “solubility in histidine buffer” value [5] of the same molecule?
A: Its value is “soluble”.

Q: What about the “activity … (set to 100%)” value (human TLR7) of the same molecule?
A: Its value is 93%.

Q: Which results are given for `CCOCc1nc2c(N)nc3ccccc3c2n1CCOCCP(=O)(O)O` [Compound 7]?
A: EC50 (human PBMCs): inactive; EC50 (splenocytes): inactive; solubility in histidine buffer [5]: insoluble; activity compared to resiquimod (set to 100%) (human TLR7): 55%

Q: For `CCCCCNc1nc(N)nc(C)c1Cc1ccc(CP(=O)(O)O)cc1OC` [Compound 8], which “activity … (set to 100%)” value (human PBMCs) is on record?
A: Its value is 50%.

Q: What about the EC50 (human PBMCs; PBMC, read-out: EC50) of the same molecule?
A: Its EC50 is 10.4 µM.

Q: And the “activity … (set to 100%)” value (splenocytes)?
A: The value was 184%.

Q: What about the EC50 (splenocytes; Splenocyte, read-out: EC50) of the same molecule?
A: Its EC50 is 3.1 µM.

Q: What about the “solubility in histidine buffer” value [5] of the same molecule?
A: Its value is “insoluble”.

Q: And the “activity … (set to 100%)” value (human TLR7)?
A: The value was 81%.

Q: For `COCCOc1cc2c(nc(O)n2Cc2ccc(CP(=O)(O)O)cc2)c(N)n1` [Compound 67, (4-((4-amino-6-(2-methoxyethoxy)-2-oxo-2,3-dihydro-1H-imidazo[4,5-c]pyridin-1-yl)methyl)benzyl)phosphonic Acid], which “systemic cytokines, effect of adsorption to Al—H” value (“systemic cytokines, effect” below) (serum cytokines) is on record?
A: The value was “generally reduced or unaffected”.

Q: And the “activity … (set to 100%)” value (human PBMCs)?
A: Its value is 59%.

Q: And the EC50 (human PBMCs; PBMC, read-out: EC50)?
A: The EC50 was 0.8 µM.

Q: And the “level of compound in muscle” value ([3]; +Al—H)?
A: Its value is “readily detected”.

Q: And the “level of compound in muscle” value ([3]; without Al—H (free form))?
A: The value was “undetectable”.

Q: And the “SBA titer at day 28” value [4, 8]?
A: The value was 64.

Q: What about the “SBA titer at day 28” value ([4]; in vivo) of the same molecule?
A: The value was 949.

Q: What about the “activity … (set to 100%)” value (splenocytes) of the same molecule?
A: Its value is 142%.

Q: What about the EC50 (splenocytes; Splenocyte, read-out: EC50) of the same molecule?
A: The EC50 was 9.3 µM.

Q: What about the “solubility in histidine buffer” value [5] of the same molecule?
A: Its value is “soluble”.

Q: What about the “activity … (set to 100%)” value (human TLR7) of the same molecule?
A: The value was 103%.

Q: And the “% adsorption to Al—H” value [2]?
A: Its value is 82%.

Q: For `CCOCc1nc2c(N)nc3ccccc3c2n1CCOCCOCCOCCP(=O)(O)O` [Compound 68, (2-(2-(2-(2-(4-amino-2-(ethoxymethyl)-1H-imidazo[4,5-c]quinolin-1-yl)ethoxy)ethoxy)ethoxy)ethyl)phosphonic Acid], which “systemic cytokines, effect” value (serum cytokines) is on record?
A: The value was “generally reduced or unaffected”.

Q: What about the EC50 (human PBMCs) of the same molecule?
A: Its EC50 is “inactive”.

Q: What about the “level of compound in muscle” value ([3]; +Al—H) of the same molecule?
A: Its value is “readily detected”.

Q: What about the “level of compound in muscle” value ([3]; without Al—H (free form)) of the same molecule?
A: The value was “undetectable”.

Q: What about the “SBA titer at day 28” value ([4]; in vivo) of the same molecule?
A: Its value is 404.

Q: What about the EC50 (splenocytes) of the same molecule?
A: Its EC50 is “inactive”.

Q: What about the “solubility in histidine buffer” value [5] of the same molecule?
A: Its value is “soluble”.

Q: And the “activity … (set to 100%)” value (human TLR7)?
A: The value was 75%.

Q: What about the “% adsorption to Al—H” value [2] of the same molecule?
A: Its value is 94%.

Q: Which EC50 (human PBMCs) does the source give for `CCCCCNc1nc(N)nc(C)c1Cc1ccc(CP(=O)(O)O)cc1` [Compound 69] here?
A: Its EC50 is “inactive”.

Q: What about the EC50 (splenocytes) of the same molecule?
A: Its EC50 is “inactive”.

Q: And the “solubility in histidine buffer” value [5]?
A: Its value is “insoluble”.

Q: And the “activity … (set to 100%)” value (human TLR7)?
A: Its value is 36%.

Q: With `CCCCCNc1nc(N)nc(C)c1Cc1ccc(OCCOCCC(F)(F)P(=O)(O)O)cc1OC` [Compound 71, (3-(2-(4-((2-amino-4-methyl-6-(pentylamino)pyrimidin-5-yl)methyl)-3-methoxyphenoxy)ethoxy)-1,1-difluoropropyl)phosphonic Acid] as the molecule, how does the “systemic cytokines, effect” value (serum cytokines) read?
A: The value was “generally reduced or unaffected”.

Q: And the “activity … (set to 100%)” value (human PBMCs)?
A: The value was 50%.

Q: What about the EC50 (human PBMCs; PBMC, read-out: EC50) of the same molecule?
A: The EC50 was 9.5 µM.

Q: And the “level of compound in muscle” value ([3]; +Al—H)?
A: The value was “readily detected”.

Q: What about the “level of compound in muscle” value ([3]; without Al—H (free form)) of the same molecule?
A: The value was “undetectable”.

Q: What about the “SBA titer at day 28” value [4, 8] of the same molecule?
A: The value was 65.

Q: What about the “SBA titer at day 28” value ([4]; in vivo) of the same molecule?
A: Its value is 1653.

Q: And the “activity … (set to 100%)” value (splenocytes)?
A: The value was 239%.

Q: What about the EC50 (splenocytes; Splenocyte, read-out: EC50) of the same molecule?
A: Its EC50 is 10.5 µM.

Q: And the “solubility in histidine buffer” value [5]?
A: The value was “soluble”.

Q: What about the “activity … (set to 100%)” value (human TLR7) of the same molecule?
A: Its value is 53%.

Q: And the “% adsorption to Al—H” value [2]?
A: The value was 85%.

Q: Which “Adsorption Efficiency to aluminum hydroxide” value [2] does the source give for `Cc1ccc2c(c1)nc(N)c1ncc(CCc3ccc(OP(=O)(O)O)cc3C)cc12` [Compound 102] here?
A: The value was 85.1%.

Q: What about the “Adsorption Efficiency to aluminum hydroxide” value ([2]; listed as compound 102) of the same molecule?
A: Its value is > 80%.

Q: What does the source list for `Cc1ccc(CCc2cnc3c(N)nc4cc(C)ccc4c3c2)c(C)c1` [O, reference compound]?
A: association with Al—H particles [6]: seen as a separate population; % adsorption to Al—H [2]: fails to adsorb

Q: For `CCOCc1nc2c(N)nc3ccccc3c2n1CC(C)(C)O` [resiquimod, reference compound], which “SBA titer at day 28” value ([4]; 5CVMB, CD-1 mice, days 0 & 14, (e) resiquimod+Al—H, positive control) is on record?
A: Its value is 1033.
